Results published in patent publication US10912770B2, “Targeting AMP deaminase 2 for ameliorating craving for sugar and other substances” (The Regents of the University of Colorado, a body coporate, priority 2016, dated 2021).
Entries after “also recorded” stand apart in the source; their conditions may differ.

What was measured:
adenosine deaminase = biological target: T1, adenosine deaminase (Homo sapiens, UniProt P00813); details: cited from earlier work
T1 sequence (P00813 1-363): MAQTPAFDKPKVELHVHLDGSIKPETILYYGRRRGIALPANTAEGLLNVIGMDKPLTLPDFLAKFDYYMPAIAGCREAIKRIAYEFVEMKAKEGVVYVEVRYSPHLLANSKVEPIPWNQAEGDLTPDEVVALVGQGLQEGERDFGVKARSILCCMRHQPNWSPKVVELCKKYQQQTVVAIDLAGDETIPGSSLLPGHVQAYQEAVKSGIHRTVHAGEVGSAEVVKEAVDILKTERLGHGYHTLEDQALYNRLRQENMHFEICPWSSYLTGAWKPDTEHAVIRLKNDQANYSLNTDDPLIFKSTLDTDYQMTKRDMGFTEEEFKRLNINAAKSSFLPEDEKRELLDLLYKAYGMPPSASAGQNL

human AMPDA = details: cited from earlier work; for Ki: human AMPDA, read-out: AMPDA K(i)
AMPD2 = biological target: T2, AMPD2 (Mus musculus, UniProt Q9DBT5); experiment: AMPD2 activity in the liver after oral pan AMPD inhibitor; type: in vivo; details: wild type mice, gavage 25 mg/kg twice daily (50 mg/kg/d)
T2 construct: from tissue
T2 sequence (Q9DBT5 1-824): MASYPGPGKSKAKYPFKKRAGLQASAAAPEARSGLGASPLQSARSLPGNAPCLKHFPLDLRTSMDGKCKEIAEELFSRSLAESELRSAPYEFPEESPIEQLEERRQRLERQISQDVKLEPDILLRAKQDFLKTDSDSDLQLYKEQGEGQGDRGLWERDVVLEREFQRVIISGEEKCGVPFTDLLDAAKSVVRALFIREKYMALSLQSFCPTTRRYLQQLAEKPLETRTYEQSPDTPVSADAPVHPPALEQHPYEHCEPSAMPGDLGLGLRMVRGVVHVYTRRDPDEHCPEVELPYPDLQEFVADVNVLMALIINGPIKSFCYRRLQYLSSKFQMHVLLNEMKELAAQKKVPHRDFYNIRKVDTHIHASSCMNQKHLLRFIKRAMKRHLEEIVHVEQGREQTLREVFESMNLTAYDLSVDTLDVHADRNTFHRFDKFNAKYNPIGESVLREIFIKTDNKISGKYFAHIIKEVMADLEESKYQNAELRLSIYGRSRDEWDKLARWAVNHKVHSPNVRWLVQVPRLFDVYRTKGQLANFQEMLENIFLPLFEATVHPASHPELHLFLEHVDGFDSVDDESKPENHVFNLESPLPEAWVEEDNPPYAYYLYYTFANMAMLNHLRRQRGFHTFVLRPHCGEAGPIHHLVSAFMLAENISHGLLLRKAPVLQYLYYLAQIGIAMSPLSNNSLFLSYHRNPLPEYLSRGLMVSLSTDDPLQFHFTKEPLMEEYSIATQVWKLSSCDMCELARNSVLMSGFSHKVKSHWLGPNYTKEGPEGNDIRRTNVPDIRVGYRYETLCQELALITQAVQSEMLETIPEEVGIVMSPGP
Description: (§1) Mice were administered the racemate of the active compound 1 (FIG. 2 in the paper by Admyre et al Chem Biol 2014; 21:1488-1496) by gavage at a dose of 25 mg/kg twice daily beginning two days before administering fructose (15%) in the drinking water.
(§2) The benefit from blocking AMPD2 on craving is not limited to mice genetically lacking AMPD2. Recently an inhibitor for AMPD2 was published, and we made a racemate of the active compound 1 (FIG. 2 in the paper by Admyre et al Chem Biol 2014; 21:1488-1496).

wild type mice = experiment: Fructose craving: intake of fructose (15%) drinking water; type: in vivo
Description: as §1, §2

3-[2-(3-carboxy-4-bromo-5,6,7,8-tetrahydronaphthyl)ethyl]-3,6,7,8-tetrahydroimidazo[4,5-d][1,3]diazepin-8-ol [Compound 24b]
enzyme specificity (adenosine deaminase): without loss in the enzyme specificity
enhancement in AMPDA inhibitory potency (human AMPDA): 10- to 250 fold
potency (K(i)) lower than the Km for the substrate AMP (human AMPDA): 10(5) fold
Ki (human AMPDA): 2 nM

CC(NCc1ccc(-c2ccc(C(=O)O)cn2)cc1)c1cccc2ccncc12 (racemic) [racemate of the active compound 1, 6-(4-((1-(Isoquinolin-8-yl)ethylamino)methyl)phenyl)nicotinic acid]
AMPD2 activity in the liver (AMPD2): significantly block AMPD2 activity in the liver; also recorded: inhibition of AMPD2 activity in the liver
craving for fructose (wild type mice; gavage 25 mg/kg twice daily (50 mg/kg/d), fructose (15%) water): completely blocked the craving for fructose
intake of fructose-containing water (wild type mice; gavage 25 mg/kg twice daily from two days before fructose (15%) in drinking water): significantly reduce the intake of fructose-containing water

CCc1cc(CCn2cnc3c2N=CNCC3O)cc(C(=O)O)c1 (centres unmarked) [43 g, 3-[2-(3-carboxy-5-ethylphenyl)ethyl]-3,6,7,8-tetrahydroimidazo[4,5-d][1,3]diazepin-8-ol]
Ki (human AMPDA): 60 nM
